{"source": "patent US5658906A", "about": "“Cysteine protease and serine protease inhibitors” (Cephalon, Inc., priority 1996, dated 1997)", "target": "T1, Calpain I (Homo sapiens, UniProt P07384)", "T1 construct": "Calpain I was purified from human red blood cells; from tissue; host or cells: human red blood cells (packed, outdated)", "T1 sequence (P07384 1-714)": "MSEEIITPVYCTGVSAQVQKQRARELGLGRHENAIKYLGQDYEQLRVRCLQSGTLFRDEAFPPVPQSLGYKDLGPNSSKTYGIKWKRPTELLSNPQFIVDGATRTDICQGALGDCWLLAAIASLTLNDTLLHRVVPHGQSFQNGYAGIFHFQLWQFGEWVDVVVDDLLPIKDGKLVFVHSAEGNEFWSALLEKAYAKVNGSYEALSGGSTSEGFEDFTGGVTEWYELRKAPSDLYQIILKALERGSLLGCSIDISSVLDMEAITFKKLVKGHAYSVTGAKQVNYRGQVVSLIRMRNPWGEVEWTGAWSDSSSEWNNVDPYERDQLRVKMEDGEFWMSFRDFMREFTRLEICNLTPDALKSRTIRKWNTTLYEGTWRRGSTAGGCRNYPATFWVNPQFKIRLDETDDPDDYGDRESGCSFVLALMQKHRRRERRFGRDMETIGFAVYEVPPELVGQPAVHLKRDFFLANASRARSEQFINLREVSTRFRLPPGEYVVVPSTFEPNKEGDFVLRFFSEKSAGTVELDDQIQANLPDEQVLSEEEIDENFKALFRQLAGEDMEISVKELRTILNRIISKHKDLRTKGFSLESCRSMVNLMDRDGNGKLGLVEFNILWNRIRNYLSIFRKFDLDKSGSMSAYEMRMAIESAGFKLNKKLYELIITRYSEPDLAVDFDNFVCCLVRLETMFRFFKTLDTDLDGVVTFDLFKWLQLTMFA", "T1 sequence (P04632 1-268 partner)": "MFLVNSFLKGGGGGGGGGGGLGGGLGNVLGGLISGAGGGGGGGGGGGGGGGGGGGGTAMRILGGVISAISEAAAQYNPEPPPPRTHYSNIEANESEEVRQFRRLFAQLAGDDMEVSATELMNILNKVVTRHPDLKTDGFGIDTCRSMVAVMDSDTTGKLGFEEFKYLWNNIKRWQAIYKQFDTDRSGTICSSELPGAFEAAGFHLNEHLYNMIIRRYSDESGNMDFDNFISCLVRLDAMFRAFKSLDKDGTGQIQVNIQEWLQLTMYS", "experiment": "Inhibition and rate of inactivation of calpain I (Succ-Leu-Tyr-MNA hydrolysis)", "assay_type": "biochemical", "settings": "mean of three or more independent analyses, corrected for substrate, k2 = kapp(1+[S]/Km), read-out: k2 (second order rate constant of inactivation), A = Calpain I"}
{"smiles": "CC(C)C[C@H](NC(=O)OCc1ccccc1)C(=O)N[C@@H](Cc1ccccc1)C(=O)COn1nnc2ccccc21", "note": "[Example 3, 1-[N-[N-Benzyloxycarbonyl-L-leucyl]-3S-4-phenyl-3-amino-2-oxobutyloxy]benzotriazole]", "values": [{"measurement": "kinact/KI", "value": 150000, "unit": "M⁻¹ s⁻¹"}]}
{"smiles": "CC[C@H](NC(=O)[C@H](CC(C)C)NC(=O)OCc1ccccc1)C(=O)COn1nnc2ccccc21", "note": "[Example 5, 1-[N-[N-Benzyloxycarbonyl-L-leucyl]-3S-3-amino-2-oxopentyloxy] benzotriazole]", "values": [{"measurement": "kinact/KI", "value": 63000, "unit": "M⁻¹ s⁻¹"}]}
{"smiles": "CC(C)C[C@H](NC(=O)OCc1ccccc1)C(=O)N[C@@H](Cc1ccccc1)C(=O)COn1nnc2cccnc21", "note": "[Example 6, 3-[N-[N-Benzyloxycarbonyl-L-leucyl]-3S-4-phenyl-3-amino-2-oxobutyloxy]-3H-triazolo[4,5-b]pyridine]", "values": [{"measurement": "kinact/KI", "value": 184000, "unit": "M⁻¹ s⁻¹"}]}
{"smiles": "CC(C)C[C@H](NC(=O)OCc1ccccc1)C(=O)N[C@@H](Cc1ccccc1)C(=O)COn1nnc2ccccc2c1=O", "note": "[Example 28, 1-[N-[N-Benzyloxycarbonyl-L-leucyl]-3S-4-phenyl-3-amino-2-oxobutyloxy]-3-benzotriazin-4-one]", "values": [{"measurement": "kinact/KI", "value": 122000, "unit": "M⁻¹ s⁻¹"}]}
